Test results taken from patent publication US8729082B2, “Substituted imidazoquinoxalines” (Bayer Intellectual Property GmbH, priority 2009, dated 2014).

target: T1, human kinase Mps-1 (Homo sapiens, UniProt P33981); experiment: Mps-1 kinase assay (HTRF); format: biochemical; details: lowATP; mean; read-out: Mps1 lowATP mean IC50
T1 construct: N-terminally GST-tagged human full length recombinant Mps-1 kinase; purchased Invitrogen, Karslruhe, Germany PV4071
T1 sequence (P33981 1-857): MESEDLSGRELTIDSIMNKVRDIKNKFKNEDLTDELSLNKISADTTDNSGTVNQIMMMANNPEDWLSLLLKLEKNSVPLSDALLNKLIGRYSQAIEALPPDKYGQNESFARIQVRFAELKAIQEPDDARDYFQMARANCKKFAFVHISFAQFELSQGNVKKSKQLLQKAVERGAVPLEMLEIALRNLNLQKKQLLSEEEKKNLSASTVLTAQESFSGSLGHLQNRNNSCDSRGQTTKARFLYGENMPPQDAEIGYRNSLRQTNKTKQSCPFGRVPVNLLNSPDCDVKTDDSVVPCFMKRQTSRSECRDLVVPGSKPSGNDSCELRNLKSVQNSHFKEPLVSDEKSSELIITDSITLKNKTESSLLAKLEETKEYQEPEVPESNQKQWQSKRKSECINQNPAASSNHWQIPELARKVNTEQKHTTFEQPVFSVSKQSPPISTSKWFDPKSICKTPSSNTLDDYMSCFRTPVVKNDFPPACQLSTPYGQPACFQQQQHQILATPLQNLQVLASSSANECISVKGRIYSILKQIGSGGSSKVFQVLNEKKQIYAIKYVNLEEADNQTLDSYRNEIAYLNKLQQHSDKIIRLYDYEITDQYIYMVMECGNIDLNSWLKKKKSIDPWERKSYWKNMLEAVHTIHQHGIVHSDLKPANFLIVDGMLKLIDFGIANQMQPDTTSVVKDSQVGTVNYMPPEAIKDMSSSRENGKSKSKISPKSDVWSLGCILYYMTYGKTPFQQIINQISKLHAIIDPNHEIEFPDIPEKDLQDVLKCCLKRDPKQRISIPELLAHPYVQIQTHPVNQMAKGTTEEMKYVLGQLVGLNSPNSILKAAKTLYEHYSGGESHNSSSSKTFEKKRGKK
In short: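 HTRF readout: EDTA-stopped reactions incubated 1 h with europium anti-phospho(Ser/Thr) antibody and streptavidin-XLent, emission ratio 665/620 nm after 350 nm excitation. Kinase step: compound pre-bound 15 min to ~1 nM GST-Mps-1, then 60 min at 22 °C with ATP and biotin-peptide substrate; inhibition scaled between no-inhibitor (0%) and no-enzyme (100%) controls.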

| IC50 | SMILES |
| --- | --- |
| 2820 nM | CNC(=O)Nc1ccc(-c2cnc3c(NCc4cccs4)nc4cc(C#N)ccc4n23)cc1 [Example 2-226, 1-(4-{7-cyano-4-[(thiophen-2-ylmethyl)amino]imidazo[1,2-a]quinoxalin-1-yl}phenyl)-3-methylurea] |
| 3470 nM | CNC(=O)Nc1ccc(-c2cnc3c(NCCCO)nc4cc(C#N)ccc4n23)cc1 [Example 2-227, 1-(4-{7-cyano-4-[(3-hydroxypropyl)amino]imidazo[1,2-a]quinoxalin-1-yl}phenyl)-3-methylurea] |
| 9780 nM | CNC(=O)Nc1ccc(-c2cnc3c(NCCNC(C)=O)nc4cc(C#N)ccc4n23)cc1 [Example 2-228, N-{2-[(7-cyano-1-{4-[(methylcarbamoyl)amino]phenyl}imidazo[1,2-a]quinoxalin-4-yl)amino]ethyl}acetamide] |
| 4990 nM | CNC(=O)Nc1ccc(-c2cnc3c(NCCCn4ccnc4)nc4cc(C#N)ccc4n23)cc1 [Example 2-229, 1-[4-(7-cyano-4-{[3-(1H-imidazol-1-yl)propyl]amino}imidazo[1,2-a]quinoxalin-1-yl)phenyl]-3-methylurea] |
| 1410 nM | CNC(=O)Nc1ccc(-c2cnc3c(NCc4cccnc4)nc4cc(C#N)ccc4n23)cc1 [Example 2-230, 1-(4-{7-cyano-4-[(pyridin-3-ylmethyl)amino]imidazo[1,2-a]quinoxalin-1-yl}phenyl)-3-methylurea] |
| 5210 nM | CNC(=O)Nc1ccc(-c2cnc3c(NCc4ccco4)nc4cc(C#N)ccc4n23)cc1 [Example 2-231, 1-(4-{7-cyano-4-[(furan-2-ylmethyl)amino]imidazo[1,2-a]quinoxalin-1-yl}phenyl)-3-methylurea] |
| 1140 nM | CNC(=O)Nc1ccc(-c2cnc3c(NCc4ccnn4C)nc4cc(C#N)ccc4n23)cc1 [Example 2-232, 1-[4-(7-cyano-4-{[(1-methyl-1H-pyrazol-5-yl)methyl]amino}imidazo[1,2-a]quinoxalin-1-yl)phenyl]-3-methylurea] |
| 17800 nM | CNC(=O)Nc1ccc(-c2cnc3c(NCC(O)CO)nc4cc(C#N)ccc4n23)cc1 (centres unmarked) [Example 2-233, 1-(4-{7-cyano-4-[(2,3-dihydroxypropyl)amino]imidazo[1,2-a]quinoxalin-1-yl}phenyl)-3-methylurea] |
| 810 nM | CCCNc1nc2cc(C#N)ccc2n2c(-c3ccc(C(=O)NC4CC4)c(Cl)c3)cnc12 [Example 2-234, 2-chloro-4-[7-cyano-4-(propylamino)imidazo[1,2-a]quinoxalin-1-yl]-N-cyclopropylbenzamide] |
| 3450 nM | N#Cc1ccc2c(c1)nc(NCCO)c1ncc(-c3ccc(C(=O)NC4CC4)c(Cl)c3)n12 [Example 2-235, 2-chloro-4-{7-cyano-4-[(2-hydroxyethyl)amino]imidazo[1,2-a]quinoxalin-1-yl}-N-cyclopropylbenzamide] |
| 15000 nM | N#Cc1ccc2c(c1)nc(NCCCN1CCOCC1)c1ncc(-c3ccc(C(=O)NC4CC4)c(Cl)c3)n12 [Example 2-236, 2-chloro-4-(7-cyano-4-{[3-(morpholin-4-yl)propyl]amino}imidazo[1,2-a]quinoxalin-1-yl)-N-cyclopropylbenzamide] |
| 600 nM | CC(C)CCNc1nc2cc(C#N)ccc2n2c(-c3ccc(C(=O)NC4CC4)c(Cl)c3)cnc12 [Example 2-237, 2-chloro-4-{7-cyano-4-[(3-methylbutyl)amino]imidazo[1,2-a]quinoxalin-1-yl}-N-cyclopropylbenzamide] |
| 613 nM | N#Cc1ccc2c(c1)nc(NCc1ccccc1F)c1ncc(-c3ccc(C(=O)NC4CC4)c(Cl)c3)n12 [Example 2-238, 2-chloro-4-{7-cyano-4-[(2-fluorobenzyl)amino]imidazo[1,2-a]quinoxalin-1-yl}-N-cyclopropylbenzamide] |
| 1040 nM | N#Cc1ccc2c(c1)nc(NCCCCO)c1ncc(-c3ccc(C(=O)NC4CC4)c(Cl)c3)n12 [Example 2-239, 2-chloro-4-{7-cyano-4-[(4-hydroxybutyl)amino]imidazo[1,2-a]quinoxalin-1-yl}-N-cyclopropylbenzamide] |
| 889 nM | N#Cc1ccc2c(c1)nc(NCc1ccccc1)c1ncc(-c3ccc(C(=O)NC4CC4)c(Cl)c3)n12 [Example 2-240, 4-[4-(benzylamino)-7-cyanoimidazo[1,2-a]quinoxalin-1-yl]-2-chloro-N-cyclopropylbenzamide] |
| 546 nM | N#Cc1ccc2c(c1)nc(NCc1cccs1)c1ncc(-c3ccc(C(=O)NC4CC4)c(Cl)c3)n12 [Example 2-241, 2-chloro-4-{7-cyano-4-[(thiophen-2-ylmethyl)amino]imidazo[1,2-a]quinoxalin-1-yl}-N-cyclopropylbenzamide] |
| 3780 nM | N#Cc1ccc2c(c1)nc(NCCCO)c1ncc(-c3ccc(C(=O)NC4CC4)c(Cl)c3)n12 [Example 2-242, 2-chloro-4-{7-cyano-4-[(3-hydroxypropyl)amino]imidazo[1,2-a]quinoxalin-1-yl}-N-cyclopropylbenzamide] |
| 506 nM | CCCCNc1nc2cc(C#N)ccc2n2c(-c3ccc(C(=O)NC4CC4)c(Cl)c3)cnc12 [Example 2-243, 4-[4-(butylamino)-7-cyanoimidazo[1,2-a]quinoxalin-1-yl]-2-chloro-N-cyclopropylbenzamide] |
| 8820 nM | CC(=O)NCCNc1nc2cc(C#N)ccc2n2c(-c3ccc(C(=O)NC4CC4)c(Cl)c3)cnc12 [Example 2-244, 4-(4-{[2-(acetylamino)ethyl]amino}-7-cyanoimidazo[1,2-a]quinoxalin-1-yl)-2-chloro-N-cyclopropylbenzamide] |
| 1120 nM | N#Cc1ccc2c(c1)nc(NCc1cccnc1)c1ncc(-c3ccc(C(=O)NC4CC4)c(Cl)c3)n12 [Example 2-245, 2-chloro-4-{7-cyano-4-[(pyridin-3-ylmethyl)amino]imidazo[1,2-a]quinoxalin-1-yl}-N-cyclopropylbenzamide] |
| 1300 nM | N#Cc1ccc2c(c1)nc(NCc1ccncc1)c1ncc(-c3ccc(C(=O)NC4CC4)c(Cl)c3)n12 [Example 2-246, 2-chloro-4-{7-cyano-4-[(pyridin-4-ylmethyl)amino]imidazo[1,2-a]quinoxalin-1-yl}-N-cyclopropylbenzamide] |
| 339 nM | CC(C)CNc1nc2cc(C#N)ccc2n2c(-c3ccc(C(=O)NC4CC4)c(Cl)c3)cnc12 [Example 2-247, 2-chloro-4-{7-cyano-4-[(2-methylpropyl)amino]imidazo[1,2-a]quinoxalin-1-yl}-N-cyclopropylbenzamide] |
| 5830 nM | N#Cc1ccc2c(c1)nc(NCCC(N)=O)c1ncc(-c3ccc(C(=O)NC4CC4)c(Cl)c3)n12 [Example 2-248, 4-{4-[(3-amino-3-oxopropyl)amino]-7-cyanoimidazo[1,2-a]quinoxalin-1-yl}-2-chloro-N-cyclopropylbenzamide] |
| 2400 nM | COCCCNc1nc2cc(C#N)ccc2n2c(-c3ccc(C(=O)NC4CC4)c(Cl)c3)cnc12 [Example 2-249, 2-chloro-4-{7-cyano-4-[(3-methoxypropyl)amino]imidazo[1,2-a]quinoxalin-1-yl}-N-cyclopropylbenzamide] |
| 1460 nM | CC(C)(C)OC(=O)NCCCNc1nc2cc(C#N)ccc2n2c(-c3ccc(C(=O)NC4CC4)c(Cl)c3)cnc12 [Example 2-250, tert-butyl [3-({1-[3-chloro-4-(cyclopropylcarbamoyl)phenyl]-7-cyanoimidazo[1,2-a]quinoxalin-4-yl}amino)propyl]carbamate] |
| 2540 nM | Cn1ccc(CNc2nc3cc(C#N)ccc3n3c(-c4ccc(C(=O)NC5CC5)c(Cl)c4)cnc23)n1 [Example 2-251, 2-chloro-4-(7-cyano-4-{[(1-methyl-1H-pyrazol-3-yl)methyl]amino}imidazo[1,2-a]quinoxalin-1-yl)-N-cyclopropylbenzamide] |
| 852 nM | Cn1nccc1CNc1nc2cc(C#N)ccc2n2c(-c3ccc(C(=O)NC4CC4)c(Cl)c3)cnc12 [Example 2-252, 2-chloro-4-(7-cyano-4-{[(1-methyl-1H-pyrazol-5-yl)methyl]amino}imidazo[1,2-a]quinoxalin-1-yl)-N-cyclopropylbenzamide] |
| 1220 nM | Cn1cc(CNc2nc3cc(C#N)ccc3n3c(-c4ccc(C(=O)NC5CC5)c(Cl)c4)cnc23)cn1 [Example 2-253, 2-chloro-4-(7-cyano-4-{[(1-methyl-1H-pyrazol-4-yl)methyl]amino}imidazo[1,2-a]quinoxalin-1-yl)-N-cyclopropylbenzamide] |
| 5530 nM | N#Cc1ccc2c(c1)nc(NCC(O)CO)c1ncc(-c3ccc(C(=O)NC4CC4)c(Cl)c3)n12 (centres unmarked) [Example 2-254, 2-chloro-4-{7-cyano-4-[(2,3-dihydroxypropyl)amino]imidazo[1,2-a]quinoxalin-1-yl}-N-cyclopropylbenzamide] |
